Test results: patent publication US20220330549A1, “USE OF N-BENZYLBENZAMIDE-BASED COMPOUND AS HERBICIDE” (Northwest A&F University, priority 2020, published 2022)

How the values were obtained:
Type in all cases: in vivo
Barnyard grass [1] = test: Herbicidal activity test for indoor pre-emergence soil treatment; set-up: key: level 1-9; higher = more weed remaining vs blank control; conditions: 150 g a.i./ha, visual inspection 21 days after treatment
Method in brief: (§1)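 Compounds were formulated as 10% emulsifiable concentrates and sprayed onto the soil 24 h after sowing, at 150 g(a.i.)/ha. Soil was sandy loam (≤2% organic matter), with seeds under 0.5–2.0 cm cover, per NY/T 1155.3-2006. Visual 1–9 ratings relative to blank control were made after 21 days.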

Piemarker [2] = test: as above; set-up: key: level 1-9; higher = more weed remaining vs blank control; conditions: 150 g a.i./ha, visual inspection 21 days after treatment
Method in brief: as §1

green bristlegrass [3] = test: as above; set-up: key: level 1-9; higher = more weed remaining vs blank control; conditions: 150 g a.i./ha, visual inspection 21 days after treatment
Method in brief: as §1

Amaranthus retroflexus [4] = test: as above; set-up: key: 1-9 levels; higher = more weed remaining vs blank control; conditions: 150 g a.i./ha, visual inspection 21 days after treatment
Method in brief: as §1

Digitaria sanguinalis [5] = test: as above; set-up: key: 1-9 levels; higher = more weed remaining vs blank control; conditions: 150 g a.i./ha, visual inspection 21 days after treatment
Method in brief: as §1

Humulus scandens [6] = test: as above; conditions: 150 g a.i./ha, visual inspection 21 days after treatment
Method in brief: as §1

Amaranthus retroflexus [7] = test: Herbicidal activity test for indoor post-emergence spraying on stems and leaves; set-up: key: grade level by weed remaining vs blank control, e.g. 5 = 10.1-15%; conditions: 150 g a.i./ha, visual inspection 21 days after treatment
Method in brief: (§2)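 Visual inspection at 21 days after treatment gave a level rating, each level defined as a percentage band of the weed remaining in the blank control area. Plants were sprayed on stems and leaves after emergence, following NY/T 1155.4-2006.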

Barnyard grass [8] = test: as above; set-up: key: grade level by weed remaining vs blank control, e.g. 5 = 10.1-15%; conditions: 150 g a.i./ha, visual inspection 21 days after treatment
Method in brief: as §2

Digitaria sanguinalis [9] = test: as above; set-up: key: grade level by weed remaining vs blank control, e.g. 5 = 10.1-15%; conditions: 150 g a.i./ha, visual inspection 21 days after treatment
Method in brief: as §2

Humulus scandens [10] = test: as above; set-up: key: grade level by weed remaining vs blank control, e.g. 5 = 10.1-15%; conditions: 150 g a.i./ha, visual inspection 21 days after treatment
Method in brief: as §2

Piemarker [11] = test: as above; set-up: key: grade level by weed remaining vs blank control, e.g. 5 = 10.1-15%; conditions: 150 g a.i./ha, visual inspection 21 days after treatment
Method in brief: as §2

green bristlegrass [12] = test: as above; set-up: key: grade level by weed remaining vs blank control, e.g. 5 = 10.1-15%; conditions: 150 g a.i./ha, visual inspection 21 days after treatment
Method in brief: as §2

Broadleaf weed = test: Post-emergence herbicidal activity test in a paddy field; set-up: key: level scale; higher level = more weed left vs blank control; conditions: 150 g a.i./ha (penoxsulam control 250 g(a.i.)/h)
Method in brief: (§3)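 Efficacy was visually estimated 15 and 30 days after spraying, grading weed coverage relative to an untreated neighbouring plot (level 2 = 0 to 2.5%, level 9 = 67.6 to 100%). Treatments were 150 g(a.i.)/ha from 10% emulsifiable concentrates applied at the 4-5 leaf rice stage, four repeats of 50 m^2 each.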

Cyperaceae = test: as above; set-up: key: level scale; higher level = more weed left vs blank control; conditions: 150 g a.i./ha (penoxsulam control 250 g(a.i.)/h)
Method in brief: as §3

Gramineae = test: as above; set-up: key: level scale; higher level = more weed left vs blank control; conditions: 150 g a.i./ha (penoxsulam control 250 g(a.i.)/h)
Method in brief: as §3

Acalypha australis = test: Field test for weed control in a corn field; conditions: 150 g a.i./ha, after treatment
Method in brief: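 Post-emergence field trial in a corn field following GB/T 17980.42-2000. Test compounds were formulated as 10% emulsifiable concentrates, diluted in water, and sprayed at 150 g(a.i.)/ha when corn had 2 to 5 leaves, with 4 replicates on 20 m^2 plots. Mesotrione 25% oil dispersion served as the control agent. Weed control was scored on a 1-9 scale.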

Amaranthus retroflexus [13] = test: Field test for weed control in a corn field; conditions: 150 g a.i./ha, 30 days after treatment
Method in brief: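 Field efficacy trial in a corn field following GB/T 17980.42-2000. Test compounds were formulated as 10% emulsifiable concentrates, diluted in water and sprayed post-emergence when corn had 2 to 5 leaves. Each treatment covered 20 m^2 with 4 replicates. A 25% mesotrione oil dispersion served as control. Damage to Amaranthus retroflexus was rated on a 1-9 scale against untreated blank plots.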

Barnyard grass [14] = test: Field test for weed control in a corn field; conditions: 150 g a.i./ha, 30 days after treatment
Method in brief: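 Corn-field efficacy trial following GB/T 17980.42-2000. Test compounds were formulated as 10% emulsifiable concentrates, diluted in water and sprayed post-emergence at 150 g(a.i.)/ha when corn had 2 to 5 leaves. Each treatment was replicated 4 times on 20 m^2 plots. Barnyard grass control was rated on a 1-9 damage scale.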

Chenopodium album = test: Field test for weed control in a corn field; conditions: 150 g a.i./ha, after treatment
Method in brief: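 A corn-field efficacy trial following GB/T 17980.42-2000 tested post-emergence control of Chenopodium album. Test compounds formulated as 10% emulsifiable concentrates were diluted in water and sprayed at 150 g(a.i.)/ha when the corn had 2 leaves to 5 leaves, on 20 m^2 plots with 4 replicates. Herbicidal activity was rated on a 1-9 scale by damage symptoms and severity.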

Convolvulus arvensis = test: Field test for weed control in a corn field; conditions: 150 g a.i./ha, after treatment
Method in brief: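 Field trial of weed control against Convolvulus arvensis in corn, run following GB/T 17980.42-2000. Test agents were formulated as 10% emulsifiable concentrates and sprayed in water at 150 g(a.i.)/ha when corn plants had 2 to 5 leaves. Each treatment was replicated 4 times on 20 m^2 plots, and 25% mesotrione oil dispersion served as the control agent.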

Digitaria sanguinalis [15] = test: Field test for weed control in a corn field; conditions: 150 g a.i./ha, after treatment
Method in brief: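 Field trial in a corn field following GB/T 17980.42-2000. Test compounds were formulated as 10% emulsifiable concentrates, diluted in water and sprayed post-emergence at 150 g(a.i.)/ha when corn had 2 to 5 leaves, with 4 replicates on 20 m^2 plots. Control of Digitaria sanguinalis was scored on a 1-9 scale based on weed damage relative to the untreated blank area.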

Portulaca oleracea = test: Field test for weed control in a corn field; conditions: 150 g a.i./ha, after treatment
Method in brief: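 Field efficacy trial in corn following GB/T 17980.42-2000. Test compounds were prepared as 10% emulsifiable concentrates, diluted in water, and sprayed at 150 g(a.i.)/ha when corn had 2 to 5 leaves after sowing. Plots were 20 m^2 with 4 replicates per treatment. Herbicidal activity was scored on a 1-9 scale from weed damage symptoms and severity.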

Solanum nigrum = test: Field test for weed control in a corn field; conditions: 150 g a.i./ha, 30 days after treatment
Method in brief: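 Post-emergence weed control was tested in a corn field following GB/T 17980.42-2000. Compounds were made into 10% emulsifiable concentrates, diluted in water and sprayed at 150 g(a.i.)/ha when corn had 2 to 5 leaves after sowing, in 20 m^2 plots with 4 replicates. Effects on Solanum nigrum were graded on a 1-9 scale relative to the blank control area.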

goosegrass = test: Field test for weed control in a corn field; conditions: 150 g a.i./ha, after treatment
Method in brief: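 Weed control efficacy against goosegrass was tested in a corn field following GB/T 17980.42-2000. Compounds formulated as 10% emulsifiable concentrates were diluted in water and sprayed post-emergence at 150 g(a.i.)/ha when corn had 2 to 5 leaves, with 4 replicates of 20 m^2 plots. Herbicidal activity was rated on a 1-9 scale by damage symptoms and severity.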

green bristlegrass [16] = test: Field test for weed control in a corn field; conditions: 150 g a.i./ha, after treatment
Method in brief: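 Post-emergence weed control was tested in a corn field following GB/T 17980.42-2000. When the corn had 2 leaves to 5 leaves after sowing, 10% emulsifiable concentrates diluted in water were sprayed at 150 g(a.i.)/ha on 20 m^2 plots, four replicates per treatment. Effects on green bristlegrass were scored on a 1-9 damage scale relative to the blank control area.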

nutgrass flatsedge = test: Field test for weed control in a corn field; conditions: 150 g a.i./ha, after treatment
Method in brief: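 A corn field efficacy trial following GB/T 17980.42-2000 assessed post-emergence control of nutgrass flatsedge. Test compounds were formulated as 10% emulsifiable concentrates, diluted in water, and sprayed at 150 g(a.i.)/ha when the corn had 2 to 5 leaves. Each treatment had 4 replicates on 20 m^2 plots. Herbicidal activity was graded on a 1-9 scale by damage symptoms and severity.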

| Structure (SMILES) | Herbicidal Activity Barnyard grass (Barnyard grass [1]) | Herbicidal Activity Piemarker (Piemarker [2]) | Herbicidal Activity Green bristlegrass (green bristlegrass [3]) | Herbicidal Activity Amaranthus retroflexus (Amaranthus retroflexus [4]) | Herbicidal Activity Digitaria sanguinalis (Digitaria sanguinalis [5]) | Herbicidal Activity Humulus scandens (Humulus scandens [6]) | Herbicidal Activity Amaranthus retroflexus (Amaranthus retroflexus [7]) | Herbicidal Activity Barnyard grass (Barnyard grass [8]) | Herbicidal Activity Digitaria sanguinalis (Digitaria sanguinalis [9]) | Herbicidal Activity Humulus scandens (Humulus scandens [10]) | Herbicidal Activity Piemarker (Piemarker [11]) | Herbicidal Activity Green bristlegrass (green bristlegrass [12]) | Herbicidal activity 15 days after treatment Broadleaf weed (Broadleaf weed) | Herbicidal activity 30 days after treatment Broadleaf weed (Broadleaf weed) | Herbicidal activity 15 days after treatment Cyperaceae (Cyperaceae) | Herbicidal activity 30 days after treatment Cyperaceae (Cyperaceae) | Herbicidal activity 15 days after treatment Gramineae (Gramineae) | Herbicidal activity 30 days after treatment Gramineae (Gramineae) | Post-emergence weed control effect, Acalypha australis (Acalypha australis) | Post-emergence weed control effect, Amaranthus retroflexus (Amaranthus retroflexus [13]) | further results |
| --- | --- | --- | --- | --- | --- | --- | --- | --- | --- | --- | --- | --- | --- | --- | --- | --- | --- | --- | --- | --- | --- |
| COc1ccc(OC)c(C(=O)NCc2ccc(F)cc2)c1 [Compound A23] | 1 | 2 (equivalent to 0 to 2.5% of the weed in the blank control area) | 1 | 2 (equivalent to 0 to 2.5% of the weed in the blank control area) | 1 | 4 (equivalent to 5.1 to 10% of the weed in the blank control area) | 1 | 1 | 1 | 1 | 1 | 1 | 1 | 1 | 1 | 1 | 1 | 1 | 2 (equivalent to 0 to 2.5% of the weed in the blank control area) | 1 | Post-emergence weed control effect, Barnyard grass (Barnyard grass [14]): 2 (equivalent to 0 to 2.5% of the weed in the blank control area); Post-emergence weed control effect, Chenopodium album (Chenopodium album): 1; Post-emergence weed control effect, Convolvulus arvensis (Convolvulus arvensis): 1; Post-emergence weed control effect, Digitaria sanguinalis (Digitaria sanguinalis [15]): 2 (equivalent to 0 to 2.5% of the weed in the blank control area); Post-emergence weed control effect, Portulaca oleracea (Portulaca oleracea): 1; Post-emergence weed control effect, Solanum nigrum (Solanum nigrum): 2 (equivalent to 0 to 2.5% of the weed in the blank control area); Post-emergence weed control effect, Goose grass (goosegrass): 2 (equivalent to 0 to 2.5% of the weed in the blank control area); Post-emergence weed control effect, Green bristlegrass (green bristlegrass [16]): 1; Post-emergence weed control effect, Nutgrass flatsedge (nutgrass flatsedge): 3 (equivalent to 2.6 to 5% of the weed in the blank control area) |
| COc1ccc(OC)c(C(=O)NCc2cc(F)cc(F)c2)c1 [Compound A24] | 1 | 1 | 1 | 1 | 1 | 1 | 1 | 1 | 1 | 1 | 1 | 1 | 1 | 1 | 1 | 1 | 1 | 1 | 3 (equivalent to 2.6 to 5% of the weed in the blank control area) | 1 | Post-emergence weed control effect, Barnyard grass (Barnyard grass [14]): 1; Post-emergence weed control effect, Chenopodium album (Chenopodium album): 1; Post-emergence weed control effect, Convolvulus arvensis (Convolvulus arvensis): 1; Post-emergence weed control effect, Digitaria sanguinalis (Digitaria sanguinalis [15]): 2 (equivalent to 0 to 2.5% of the weed in the blank control area); Post-emergence weed control effect, Portulaca oleracea (Portulaca oleracea): 1; Post-emergence weed control effect, Solanum nigrum (Solanum nigrum): 2 (equivalent to 0 to 2.5% of the weed in the blank control area); Post-emergence weed control effect, Goose grass (goosegrass): 2 (equivalent to 0 to 2.5% of the weed in the blank control area); Post-emergence weed control effect, Green bristlegrass (green bristlegrass [16]): 1; Post-emergence weed control effect, Nutgrass flatsedge (nutgrass flatsedge): 3 (equivalent to 2.6 to 5% of the weed in the blank control area) |
